# From ChEMBL document CHEMBL3885861, “Open TG-GATES”
# Species on record: Rattus norvegicus
# Assay: Open TG-GATES - Regimen: Daily Repeat
# Type: toxicity, organism-based, Sprague-Dawley
# Design: regimen Daily Repeat, gender Male, age 6 weeks
# Conditions: in vivo, po, 450 mg/kg, route gavage, dose level High; for Eos / Fbg / Hb / Ht / Lym / MCH / MCHC / MCV / Mono / Neu / PT / Plat / RBC / Ret / WBC / APTT / Bas: tissue Blood; for KIDNEY_L / KIDNEY_R / KIDNEY_TOTAL: tissue Kidney; for ALP / ALT / AST / BUN / CRE / Ca / Cl / DBIL / GLC / IP / K / LDH / Na / PL / RALB / TBIL / TC / TG / TP / gamma-GTP: tissue Plasma
structure (smiles),measurement,setting,value
CC(=O)Oc1ccccc1C(=O)O [ASPIRIN],Eos,"72 h, time 3 day",0.4%
same,Fbg,"72 h, time 3 day",212.4 mg/dL
same,Hb,"72 h, time 3 day",13.5 g/dL
same,Ht,"72 h, time 3 day",39.3%
same,Lym,"72 h, time 3 day",81.4%
same,MCH,"72 h, time 3 day",21.4 pg
same,MCHC,"72 h, time 3 day",34.2%
same,MCV,"72 h, time 3 day",62.5 fL
same,Mono,"72 h, time 3 day",2%
same,Neu,"72 h, time 3 day",14.8%
same,PT,"72 h, time 3 day",14.1 s
same,Plat,"72 h, time 3 day",122.2 x10_4/uL
same,RBC,"72 h, time 3 day",630 x10_4/ul
same,Ret,"72 h, time 3 day",4.7%
same,WBC,"72 h, time 3 day",126.2 x10_2/uL
same,KIDNEY_L,"72 h, time 3 day",1.1 g
same,KIDNEY_R,"72 h, time 3 day",1.1 g
same,KIDNEY_TOTAL,"72 h, time 3 day",2.2 g
same,ALP,"72 h, time 3 day",880.2 IU/L
same,ALT,"72 h, time 3 day",47 IU/L
same,AST,"72 h, time 3 day",82.4 IU/L
same,BUN,"72 h, time 3 day",14.8 mg/dL
same,CRE,"72 h, time 3 day",0.4 mg/dL
same,Ca,"72 h, time 3 day",11.2 mg/dL
same,Cl,"72 h, time 3 day",103 meq/L
same,DBIL,"72 h, time 3 day",0.1 mg/dL
same,GLC,"72 h, time 3 day",188 mg/dL
same,IP,"72 h, time 3 day",7.1 mg/dL
same,K,"72 h, time 3 day",3.7 meq/L
same,LDH,"72 h, time 3 day",233.4 IU/L
same,Na,"72 h, time 3 day",142.2 meq/L
same,PL,"72 h, time 3 day",147.2 mg/dL
same,RALB,"72 h, time 3 day",3.3 g/dL
same,TBIL,"72 h, time 3 day",0.2 mg/dL
same,TC,"72 h, time 3 day",62.2 mg/dL
same,TG,"72 h, time 3 day",187 mg/dL
same,TP,"72 h, time 3 day",5.5 g/dL
same,gamma-GTP,"72 h, time 3 day",1.4 IU/L
same,TERMINAL_BW,"[…], time 7 day",257.1 g
same,TERMINAL_BW,"[…], time 14 day",301.6 g
same,TERMINAL_BW,"[…], time 28 day",356.2 g
same,APTT,"[…], time 7 day",22.6 s
same,Bas,"[…], time 7 day",0%
same,Eos,"[…], time 7 day",0.8%
same,Fbg,"[…], time 7 day",210.2 mg/dL
same,Hb,"[…], time 7 day",13.3 g/dL
same,Ht,"[…], time 7 day",39.6%
same,Lym,"[…], time 7 day",81.6%
same,MCH,"[…], time 7 day",21.2 pg
same,MCHC,"[…], time 7 day",33.7%
same,MCV,"[…], time 7 day",63 fL
same,Mono,"[…], time 7 day",2.2%
same,Neu,"[…], time 7 day",14%
same,PT,"[…], time 7 day",13.6 s
same,Plat,"[…], time 7 day",111.3 x10_4/uL
same,RBC,"[…], time 7 day",629.4 x10_4/ul
same,Ret,"[…], time 7 day",7.9%
same,WBC,"[…], time 7 day",159.1 x10_2/uL
same,APTT,"[…], time 14 day",22.1 s
same,Bas,"[…], time 14 day",0%
same,Eos,"[…], time 14 day",1%
same,Fbg,"[…], time 14 day",210 mg/dL
same,Hb,"[…], time 14 day",14.5 g/dL
same,Ht,"[…], time 14 day",41.5%
same,Lym,"[…], time 14 day",78.6%
same,MCH,"[…], time 14 day",21.3 pg
same,MCHC,"[…], time 14 day",34.9%
same,MCV,"[…], time 14 day",61.1 fL
same,Mono,"[…], time 14 day",2.6%
same,Neu,"[…], time 14 day",16.4%
same,PT,"[…], time 14 day",13 s
same,Plat,"[…], time 14 day",125.9 x10_4/uL
same,RBC,"[…], time 14 day",679.8 x10_4/ul
same,Ret,"[…], time 14 day",4.7%
same,WBC,"[…], time 14 day",146.8 x10_2/uL
same,APTT,"[…], time 28 day",23.9 s
same,Bas,"[…], time 28 day",0%
same,Eos,"[…], time 28 day",1%
same,Fbg,"[…], time 28 day",194.2 mg/dL
same,Hb,"[…], time 28 day",14.9 g/dL
same,Ht,"[…], time 28 day",43.2%
same,Lym,"[…], time 28 day",76.6%
same,MCH,"[…], time 28 day",20.1 pg
same,MCHC,"[…], time 28 day",34.5%
same,MCV,"[…], time 28 day",58.2 fL
same,Mono,"[…], time 28 day",2.6%
same,Neu,"[…], time 28 day",18.8%
same,PT,"[…], time 28 day",14 s
same,Plat,"[…], time 28 day",90.2 x10_4/uL
same,RBC,"[…], time 28 day",746.6 x10_4/ul
same,Ret,"[…], time 28 day",3.3%
same,WBC,"[…], time 28 day",115.2 x10_2/uL
same,KIDNEY_L,"[…], time 7 day",1.1 g
same,KIDNEY_R,"[…], time 7 day",1.1 g
same,KIDNEY_TOTAL,"[…], time 7 day",2.3 g
same,KIDNEY_L,"[…], time 14 day",1.3 g
same,KIDNEY_R,"[…], time 14 day",1.3 g
same,KIDNEY_TOTAL,"[…], time 14 day",2.5 g
same,KIDNEY_L,"[…], time 28 day",1.3 g
same,KIDNEY_R,"[…], time 28 day",1.4 g
same,KIDNEY_TOTAL,"[…], time 28 day",2.7 g
same,ALP,"[…], time 7 day",1005.2 IU/L
same,ALT,"[…], time 7 day",51.6 IU/L
same,AST,"[…], time 7 day",102.4 IU/L
same,BUN,"[…], time 7 day",16.8 mg/dL
same,CRE,"[…], time 7 day",0.5 mg/dL
same,Ca,"[…], time 7 day",11 mg/dL
same,Cl,"[…], time 7 day",102.4 meq/L
same,DBIL,"[…], time 7 day",0.1 mg/dL
same,GLC,"[…], time 7 day",207.4 mg/dL
same,IP,"[…], time 7 day",7.4 mg/dL
same,K,"[…], time 7 day",4.1 meq/L
same,LDH,"[…], time 7 day",248.2 IU/L
same,Na,"[…], time 7 day",142 meq/L
same,PL,"[…], time 7 day",158.6 mg/dL
same,RALB,"[…], time 7 day",3.4 g/dL
same,TBIL,"[…], time 7 day",0.2 mg/dL
same,TC,"[…], time 7 day",66.8 mg/dL
same,TG,"[…], time 7 day",182.4 mg/dL
same,TP,"[…], time 7 day",5.3 g/dL
same,gamma-GTP,"[…], time 7 day",1.2 IU/L
same,ALP,"[…], time 14 day",871 IU/L
same,ALT,"[…], time 14 day",46.2 IU/L
same,AST,"[…], time 14 day",92.8 IU/L
same,BUN,"[…], time 14 day",16.4 mg/dL
same,CRE,"[…], time 14 day",0.5 mg/dL
same,Ca,"[…], time 14 day",10.8 mg/dL
same,Cl,"[…], time 14 day",101.4 meq/L
same,DBIL,"[…], time 14 day",0.1 mg/dL
same,GLC,"[…], time 14 day",175.8 mg/dL
same,IP,"[…], time 14 day",7.6 mg/dL
same,K,"[…], time 14 day",4.4 meq/L
same,LDH,"[…], time 14 day",312 IU/L
same,Na,"[…], time 14 day",141.2 meq/L
same,PL,"[…], time 14 day",170.6 mg/dL
same,RALB,"[…], time 14 day",3.3 g/dL
same,TBIL,"[…], time 14 day",0.2 mg/dL
same,TC,"[…], time 14 day",65.6 mg/dL
same,TG,"[…], time 14 day",250.6 mg/dL
same,TP,"[…], time 14 day",5.4 g/dL
same,gamma-GTP,"[…], time 14 day",0.8 IU/L
same,ALP,"[…], time 28 day",771.8 IU/L
same,ALT,"[…], time 28 day",40.6 IU/L
same,AST,"[…], time 28 day",85.6 IU/L
same,BUN,"[…], time 28 day",18.4 mg/dL
same,CRE,"[…], time 28 day",0.5 mg/dL
same,Ca,"[…], time 28 day",10.3 mg/dL
same,Cl,"[…], time 28 day",102.6 meq/L
same,DBIL,"[…], time 28 day",0.094 mg/dL
same,GLC,"[…], time 28 day",204.4 mg/dL
same,IP,"[…], time 28 day",6.5 mg/dL
same,K,"[…], time 28 day",4 meq/L
same,LDH,"[…], time 28 day",179 IU/L
same,Na,"[…], time 28 day",141.8 meq/L
same,PL,"[…], time 28 day",146.6 mg/dL
same,RALB,"[…], time 28 day",3.4 g/dL
same,TBIL,"[…], time 28 day",0.2 mg/dL
same,TC,"[…], time 28 day",58.2 mg/dL
same,TG,"[…], time 28 day",172.4 mg/dL
same,TP,"[…], time 28 day",5.2 g/dL
same,gamma-GTP,"[…], time 28 day",1 IU/L
